Measured values: patent USRE47193E1, “Selectively substituted quinoline compounds” (EISAI R&D MANAGEMENT CO., LTD., priority 2013, dated 2019)
“And” between values parts separate entries of the source, which are not always exact repeats. Equal entries are not always repeated.

biological target: T1, human TLR8 (Homo sapiens, UniProt Q9NR97); assay: HEK-293 human TLR8 NF-kappaB luciferase reporter assay (CL097); format: cell-based; details: HEK-293 assay format; read-out: HEK/hTLR8 IC50
T1 construct: host or cells: HEK-293, then stably transfected with pNiFty2(NF-kappaB)-luciferase reporter
T1 sequence (Q9NR97 27-1041): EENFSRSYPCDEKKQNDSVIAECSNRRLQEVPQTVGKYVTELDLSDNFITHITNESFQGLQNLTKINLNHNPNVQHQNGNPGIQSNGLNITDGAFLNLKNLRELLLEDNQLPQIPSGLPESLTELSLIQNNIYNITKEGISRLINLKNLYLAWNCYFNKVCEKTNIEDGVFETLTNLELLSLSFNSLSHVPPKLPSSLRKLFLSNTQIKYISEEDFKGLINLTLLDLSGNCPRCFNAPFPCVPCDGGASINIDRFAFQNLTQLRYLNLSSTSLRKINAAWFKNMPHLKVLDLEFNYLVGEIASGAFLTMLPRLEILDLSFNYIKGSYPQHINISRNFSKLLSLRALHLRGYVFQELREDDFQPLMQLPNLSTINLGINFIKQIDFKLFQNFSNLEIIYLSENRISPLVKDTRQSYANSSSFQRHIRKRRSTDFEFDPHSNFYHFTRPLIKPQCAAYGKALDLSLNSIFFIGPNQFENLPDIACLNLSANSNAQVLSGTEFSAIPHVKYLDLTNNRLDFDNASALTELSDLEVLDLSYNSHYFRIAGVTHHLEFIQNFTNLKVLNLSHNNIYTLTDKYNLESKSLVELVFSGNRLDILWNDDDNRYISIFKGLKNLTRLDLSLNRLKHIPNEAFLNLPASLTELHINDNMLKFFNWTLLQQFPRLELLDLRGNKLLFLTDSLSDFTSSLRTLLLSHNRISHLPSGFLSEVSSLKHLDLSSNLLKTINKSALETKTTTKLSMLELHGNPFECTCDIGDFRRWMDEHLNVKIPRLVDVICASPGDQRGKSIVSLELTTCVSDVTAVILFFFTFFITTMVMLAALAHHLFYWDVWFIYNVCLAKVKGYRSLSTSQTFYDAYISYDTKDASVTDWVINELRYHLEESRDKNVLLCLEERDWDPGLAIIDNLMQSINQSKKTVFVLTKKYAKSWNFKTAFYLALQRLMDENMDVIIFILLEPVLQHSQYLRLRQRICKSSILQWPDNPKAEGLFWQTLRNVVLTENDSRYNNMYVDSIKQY
Method: Effects on mouse TLR7 were also compared. Cells were stimulated overnight with TLR7/8 agonist CL097 at pre-determined ED70-80: 3 ug/ml for HEK-hTLR7, 1.5 ug/ml for HEK-mTLR7 and 12 ug/ml for HEK-hTLR8, before reading luminescence intensity. Three tests were performed and IC50 value was determined using Graphpad Prism 6 nonlinear regression curve fit.
HEK-293 cells (ATCC) were engineered to stably express a NF-kappaB transcription factor inducible E-selectin (ELAM-1) luciferase reporter derived from the plasmid pGL3 (Promega) containing base pairs −2241 bp to −254 bp from the promoter of the human E-selectin gene (Accession No. NM_000450). These cells were then subsequently engineered to stably and individually express human TLR4, TLR7 or TLR9 full-length ORF cDNAs. Human TLR4 cDNA (Accession No. NM_138554) was cloned into pcDNA 3.0 expression vector (Invitrogen). TLR4 transfected cells were also engineered to express human MD-2 co-receptor [MD-2 cDNA (Accession No. NM_015364) was cloned into the pEF-BOS vector] and were supplemented with 10 nM soluble CD14 (R&D Systems) in the media to optimize LPS responsiveness. Human TLR9 cDNA (Accession No. NM_017442) was cloned into the pBluescript II KS vector (Agilent). Human TLR7 cDNA (Accession No. NM_016562) was obtained from OriGene. HEK-293 cells stably expressing human TLR8 (Accession No. NM_138636) or mouse TLR7 (Accession No. NM_133211) were purchased from InvivoGen and were then stably transfected with pNiFty2(NF-kappaB)-luciferase reporter plasmid (InvivoGen). Each cell type was plated in Dulbecco's modified Eagle's medium (DMEM) containing 10% fetal bovine serum (FBS) at a density of 2.22×10^5 cells/ml into a 384-well plate and incubated for 2 days at 37° C., 5% CO2. Varying concentrations of antagonist compounds were then added. Cells were then incubated for another 30 minutes before adding the appropriate TLR agonist as follows (final concentrations indicated): lipopolysaccharide (LPS; Sigma) at 10 ng/ml for TLR4, CL097 (InvivoGen) at 3 ug/ml for human TLR7 and TLR8 and mouse TLR7, and CvG-2006-2A [sequence: […] (SEQ ID NO: 1) with phosphorothioate backbone, synthesized by Sigma-Aldrich] at 0.6 uM for TLR9.

SMILES | IC50
C[C@@H]1CN(c2ccc(C#N)c3ncccc23)C[C@H](C)O1 [ER-878952] | 6 nM and 19.5 nM
C[C@@H]1CN(c2ccc(C#N)c3ncccc23)C[C@H](CO)O1 [ER-885493, 5-((2R,6R)-2-(hydroxymethyl)-6-methylmorpholino)quinoline-8-carbonitrile] | 101 nM
CC1CN(c2ccc(C#N)c3ncccc23)CC(CN2CCCC2CO)O1 (stereo not drawn) [ER-886814] | 60 nM
C[C@@H]1CN(c2ccc(C#N)c3ncccc23)C[C@H](CN2CC[C@H](O)C2)O1 [ER-886820] | 78 nM
C[C@@H]1CN(c2ccc(C#N)c3ncccc23)C[C@H](CN2CCC(O)CC2)O1 [ER-886953] | 66 nM
C[C@@H]1CN(c2ccc(C#N)c3ncccc23)C[C@H](CNC2CCCC2)O1 [ER-887145] | 105 nM
C[C@@H]1CN(c2ccc(C#N)c3ncccc23)C[C@H](CN2CCNCC2)O1 [ER-887253] | 2 nM
C[C@@H]1CN(C[C@H]2CN(c3ccc(C#N)c4ncccc34)C[C@@H](C)O2)CCN1 [ER-887269] | 3.2 nM
CC1CNC(=O)CN1C[C@H]1CN(c2ccc(C#N)c3ncccc23)C[C@@H](C)O1 (stereo partly drawn) [ER-887722] | 21 nM
C[C@@H]1CN(c2ccc(C#N)c3ncccc23)C[C@H](CN2CCN(C)CC2)O1 [ER-887723] | 9 nM
CCCN1CCN(C[C@H]2CN(c3ccc(C#N)c4ncccc34)C[C@@H](C)O2)CC1 [ER-887724] | 6 nM
CC1CN(c2ccc(C#N)c3ncccc23)CC(CN2CCC(N(C)C)CC2)O1 (stereo not drawn) [ER-887725] | 1 nM
C[C@@H]1CN(c2ccc(C#N)c3ncccc23)C[C@H](CN2CCC(N3CCCCC3)CC2)O1 [ER-887927, 5-((2S,6R)-2-([1,4′-bipiperidin]-1′-ylmethyl)-6-methylmorpholino)quinoline-8-carbonitrile] | 0.5 nM
CC[C@H]1CN(C[C@H]2CN(c3ccc(C#N)c4ncccc34)C[C@@H](C)O2)CCN1 [ER-890963] | 2.8 nM

same assay, conditions: HEK-hTLR8; CL097 12 ug/ml; average of three tests; read-out: IC50 average

SMILES | IC50
CCN(CCO)CCCC(C)Nc1ccnc2cc(Cl)ccc12 (stereo not drawn) [HCQ, hydroxychloroquine, reference compound] | > 10000 nM

same assay, conditions: HEK-hTLR8; CL097 12 ug/ml; individual tests 1-3; read-out: IC50

SMILES | IC50
CCN(CCO)CCCC(C)Nc1ccnc2cc(Cl)ccc12 (stereo not drawn) [HCQ, hydroxychloroquine, reference compound] | > 10000 nM

same assay, conditions: IC50, HEK-hTLR8; CL097 12 ug/ml; individual tests 1-3

SMILES | IC50
C[C@@H]1CN(c2ccc(C#N)c3ncccc23)C[C@H](C(=O)N[C@H]2CNC[C@H]2F)O1.Cl [ER-899742, (2R,6R)-4-(8-cyanoquinolin-5-yl)-N-[(3S,4R)-4-fluoropyrrolidin-3-yl]-6-methylmorpholine-2-carboxamide hydrochloride] | 2 nM and 2.5 nM and 2.6 nM

same assay, conditions: IC50 average, HEK-hTLR8; CL097 12 ug/ml; average of three tests

SMILES | IC50
C[C@@H]1CN(c2ccc(C#N)c3ncccc23)C[C@H](C(=O)N[C@H]2CNC[C@H]2F)O1.Cl [ER-899742, (2R,6R)-4-(8-cyanoquinolin-5-yl)-N-[(3S,4R)-4-fluoropyrrolidin-3-yl]-6-methylmorpholine-2-carboxamide hydrochloride] | 2.4 nM
